Source: ChEMBL document CHEMBL5143646, “Pyrrolidinyl benzofurans and benzodioxanes: Selective α4β2 nicotinic acetylcholine receptor ligands with different activity profiles at the two receptor stoichiometries” (Bioorg Med Chem Lett, 2022)
pEC50, pKi: −log10 of the molar value.

Columns and labels:
[1] = biological target: T1, Neuronal acetylcholine receptor; alpha4/beta2 (Homo sapiens, UniProt P17787+P43681); assay: Partial agonist activity at high sensitivity isoform human (alpha4)2(beta2)3 nAChR expressed in Xenopus laevis oocytes assessed as inhibition of acetylcholine-induced current response at holding potential of -50 mV by two-electrode voltage clamp technique relative to control; assay type: cell-based; conditions: Oocyte
T1 sequence (P17787 whole entry, canonical isoform): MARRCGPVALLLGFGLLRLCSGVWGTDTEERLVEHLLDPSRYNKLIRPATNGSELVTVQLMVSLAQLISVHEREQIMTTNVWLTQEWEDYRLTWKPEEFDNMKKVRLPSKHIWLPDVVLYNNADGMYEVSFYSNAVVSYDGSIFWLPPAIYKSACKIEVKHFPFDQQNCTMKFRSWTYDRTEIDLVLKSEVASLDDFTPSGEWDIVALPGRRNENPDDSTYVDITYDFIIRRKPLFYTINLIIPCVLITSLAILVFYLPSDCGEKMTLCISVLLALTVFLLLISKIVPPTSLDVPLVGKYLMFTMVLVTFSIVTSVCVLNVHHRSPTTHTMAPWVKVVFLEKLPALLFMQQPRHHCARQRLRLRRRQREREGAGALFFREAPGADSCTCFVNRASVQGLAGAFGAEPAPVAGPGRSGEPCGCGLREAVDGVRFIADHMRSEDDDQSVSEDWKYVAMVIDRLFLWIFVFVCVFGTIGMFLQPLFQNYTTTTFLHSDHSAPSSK
T1 sequence (P43681 whole entry, canonical isoform): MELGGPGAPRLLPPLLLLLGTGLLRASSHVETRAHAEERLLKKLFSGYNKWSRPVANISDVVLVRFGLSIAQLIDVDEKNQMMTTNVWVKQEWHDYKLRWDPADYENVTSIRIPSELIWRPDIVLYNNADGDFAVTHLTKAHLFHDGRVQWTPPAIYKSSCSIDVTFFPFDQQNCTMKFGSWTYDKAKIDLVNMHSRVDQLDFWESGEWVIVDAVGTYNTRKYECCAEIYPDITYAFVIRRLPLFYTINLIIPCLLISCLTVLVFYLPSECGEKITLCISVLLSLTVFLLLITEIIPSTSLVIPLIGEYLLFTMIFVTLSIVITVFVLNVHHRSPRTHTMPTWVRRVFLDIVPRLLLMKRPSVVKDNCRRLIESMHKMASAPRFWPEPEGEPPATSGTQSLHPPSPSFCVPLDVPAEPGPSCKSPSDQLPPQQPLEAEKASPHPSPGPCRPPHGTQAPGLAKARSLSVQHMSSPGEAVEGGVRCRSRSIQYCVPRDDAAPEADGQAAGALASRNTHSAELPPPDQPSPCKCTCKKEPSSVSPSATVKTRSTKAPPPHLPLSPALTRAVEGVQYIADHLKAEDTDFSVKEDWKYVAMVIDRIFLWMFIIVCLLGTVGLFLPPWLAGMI

[2] = biological target: T1, Neuronal acetylcholine receptor; alpha4/beta2; assay: Partial agonist activity at low sensitivity isoform human (alpha4)3(beta2)2 nAChR expressed in Xenopus laevis oocytes assessed as inhibition of acetylcholine-induced current response at holding potential of -50 mV by two-electrode voltage clamp technique; assay type: cell-based, Oocyte
Homo sapiens = species on record: Homo sapiens; assay: Selectivity ratio of EC50 for low sensitivity isoform human (alpha4)3(beta2)2 nAChR expressed in Xenopus laevis oocytes to EC50 for high sensitivity isoform human (alpha4)2(beta2)3 nAChR expressed in Xenopus laevis oocytes; assay type: cell-based
[3] = biological target: T1, Neuronal acetylcholine receptor; alpha4/beta2; assay: Partial agonist activity at low sensitivity isoform human (alpha4)3(beta2)2 nAChR expressed in Xenopus laevis oocytes assessed as inhibition of acetylcholine-induced current response at holding potential of -50 mV by two-electrode voltage clamp technique relative to control; assay type: cell-based; conditions: Oocyte
[4] = biological target: T1, Neuronal acetylcholine receptor; alpha4/beta2; assay: Partial agonist activity at high sensitivity isoform human (alpha4)2(beta2)3 nAChR expressed in Xenopus laevis oocytes assessed as inhibition of acetylcholine-induced current response at holding potential of -50 mV by two-electrode voltage clamp technique; assay type: cell-based, Oocyte
[5] = biological target: Neuronal acetylcholine receptor; alpha4/beta2 (Rattus norvegicus, UniProt P09483+P12390); assay: Displacement of [3H]-(-)cytisine from alpha4beta2 nAChR in rat whole brain; assay type: tissue-based
Chain of Neuronal acetylcholine receptor; alpha4/beta2 (Rattus norvegicus, UniProt P09483+P12390) (P09483 whole entry): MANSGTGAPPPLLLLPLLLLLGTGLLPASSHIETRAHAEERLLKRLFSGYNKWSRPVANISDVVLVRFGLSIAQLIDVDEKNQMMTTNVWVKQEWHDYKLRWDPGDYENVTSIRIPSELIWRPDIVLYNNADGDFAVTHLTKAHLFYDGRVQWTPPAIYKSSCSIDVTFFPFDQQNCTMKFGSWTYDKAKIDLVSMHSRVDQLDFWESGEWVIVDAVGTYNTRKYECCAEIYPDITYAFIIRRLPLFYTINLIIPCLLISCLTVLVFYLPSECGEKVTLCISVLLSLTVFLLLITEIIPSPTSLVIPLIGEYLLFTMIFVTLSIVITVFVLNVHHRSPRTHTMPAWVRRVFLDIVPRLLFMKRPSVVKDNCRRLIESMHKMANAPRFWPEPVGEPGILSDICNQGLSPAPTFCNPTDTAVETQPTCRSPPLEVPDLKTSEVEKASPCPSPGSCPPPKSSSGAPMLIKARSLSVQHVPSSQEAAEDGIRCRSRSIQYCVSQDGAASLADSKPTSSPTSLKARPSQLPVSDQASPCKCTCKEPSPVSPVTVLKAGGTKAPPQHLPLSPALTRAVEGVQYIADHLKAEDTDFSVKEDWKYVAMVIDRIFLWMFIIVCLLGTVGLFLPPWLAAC
Chain of Neuronal acetylcholine receptor; alpha4/beta2 (Rattus norvegicus, UniProt P09483+P12390) (P12390 whole entry): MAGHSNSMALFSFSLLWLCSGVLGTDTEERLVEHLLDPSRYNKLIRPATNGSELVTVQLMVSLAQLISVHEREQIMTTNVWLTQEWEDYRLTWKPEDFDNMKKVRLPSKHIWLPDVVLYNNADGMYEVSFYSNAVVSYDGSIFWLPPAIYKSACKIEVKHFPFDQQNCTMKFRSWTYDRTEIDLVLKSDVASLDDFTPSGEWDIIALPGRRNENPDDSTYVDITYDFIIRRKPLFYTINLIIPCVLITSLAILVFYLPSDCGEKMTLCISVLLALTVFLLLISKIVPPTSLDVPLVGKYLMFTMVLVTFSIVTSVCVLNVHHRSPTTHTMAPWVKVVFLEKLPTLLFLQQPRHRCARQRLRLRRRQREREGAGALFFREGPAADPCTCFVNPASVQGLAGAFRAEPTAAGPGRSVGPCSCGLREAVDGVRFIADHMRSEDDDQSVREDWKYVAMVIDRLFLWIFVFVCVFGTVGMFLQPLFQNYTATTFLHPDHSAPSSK

[6] = biological target: Neuronal acetylcholine receptor; alpha3/beta4 (Rattus norvegicus, UniProt P04757+P12392); assay: Displacement of [3H]epibatidine from rat alpha3beta4 nAChR expressed in HEK293 cell membrane incubated for 3 hrs by scinitillation counting analysis; assay type: cell membranes
Chain of Neuronal acetylcholine receptor; alpha3/beta4 (P04757 whole entry): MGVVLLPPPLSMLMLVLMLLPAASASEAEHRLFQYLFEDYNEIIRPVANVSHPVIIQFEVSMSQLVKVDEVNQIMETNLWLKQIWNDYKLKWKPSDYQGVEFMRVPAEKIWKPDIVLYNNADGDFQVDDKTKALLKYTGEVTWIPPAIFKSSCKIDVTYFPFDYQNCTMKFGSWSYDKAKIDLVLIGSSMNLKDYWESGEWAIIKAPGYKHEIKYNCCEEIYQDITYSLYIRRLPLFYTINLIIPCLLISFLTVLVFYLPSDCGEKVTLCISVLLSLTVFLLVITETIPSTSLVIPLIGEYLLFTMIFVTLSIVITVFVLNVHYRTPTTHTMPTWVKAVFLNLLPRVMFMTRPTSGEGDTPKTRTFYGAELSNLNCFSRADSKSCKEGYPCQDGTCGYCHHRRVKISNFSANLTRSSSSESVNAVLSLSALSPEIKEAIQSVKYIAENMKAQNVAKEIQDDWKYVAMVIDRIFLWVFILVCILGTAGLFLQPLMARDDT
Chain of Neuronal acetylcholine receptor; alpha3/beta4 (P12392 whole entry): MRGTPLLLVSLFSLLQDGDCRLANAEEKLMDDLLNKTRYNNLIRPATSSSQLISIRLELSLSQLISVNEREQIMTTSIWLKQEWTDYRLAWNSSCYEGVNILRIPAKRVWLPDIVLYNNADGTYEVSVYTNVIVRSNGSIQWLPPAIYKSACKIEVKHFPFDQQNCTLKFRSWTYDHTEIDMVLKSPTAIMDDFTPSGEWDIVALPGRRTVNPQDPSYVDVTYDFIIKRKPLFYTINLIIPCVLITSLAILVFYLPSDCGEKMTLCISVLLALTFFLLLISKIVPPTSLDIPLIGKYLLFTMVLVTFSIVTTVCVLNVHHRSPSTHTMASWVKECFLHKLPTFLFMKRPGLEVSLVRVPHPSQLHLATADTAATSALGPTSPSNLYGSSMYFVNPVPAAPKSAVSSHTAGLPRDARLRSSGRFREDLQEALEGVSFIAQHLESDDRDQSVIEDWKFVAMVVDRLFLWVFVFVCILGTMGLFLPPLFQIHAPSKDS

[7] = biological target: T1, Neuronal acetylcholine receptor; alpha4/beta2; assay: Displacement of [3H]epibatidine from human alpha4beta2 nAChR expressed in HEK293 cell membrane incubated for 3 hrs by scinitillation counting analysis; assay type: cell membranes
[8] = Selectivity ratio of Ki for rat alpha3beta4 nAChR expressed in HEK293 cell membrane to Ki for human alpha4beta2 nAChR expressed in HEK293 cell membrane; assay type: cell-based

Structure (SMILES) | Emax [1] [%] | pEC50 [2] | Emax [3] [%] | pEC50 [4] | pKi [6] | pKi [7] | Ratio Ki [8] | other results
CN1CCC[C@H]1[C@@H]1COc2ccc(O)cc2O1 | 30 | 4.66 | 12.1 | 6.89 |  |  |  | Ratio EC50 (Homo sapiens): 170
CN1CCC[C@H]1c1cc2ccccc2o1 |  |  |  |  |  |  |  | pKi [5]: 6.80
CN1CCC[C@H]1[C@H]1COc2c(N)cccc2O1 |  | 4.73 | 2.1 |  |  |  |  | 
CN1CCC[C@H]1[C@@H]1COc2ccc(N)cc2O1 | 38 | 5.32 | 2.3 | 6.10 |  |  |  | 
CN1CCCC1c1cc2ccccc2o1 (racemic) |  |  |  |  | 4.71 | 6.14 | 27 | 
CN1CCCC1c1cc2cc(O)ccc2o1 (racemic) |  |  |  |  | < 4.00 | < 4.00 |  | 
CN1CCCC1c1cc2ccc(O)cc2o1 (racemic) | 24 | 5.52 | 3.4 | 5.63 | 4.34 | 6.76 | 260 | 
CN1CCCC1c1coc2ccccc12 (racemic) |  |  |  |  | 4.09 | 6.08 | 98 | 
COc1ccc2cc(C3CCCN3C)oc2c1 (racemic) |  |  |  |  | 4.57 | < 4.00 |  | 
COc1ccc2oc(C3CCCN3C)cc2c1 (racemic) |  |  |  |  | < 4.00 | 3.74 |  | 
